Measurements: the NIST ThermoML archive (doi:10.1021/acs.jced.6b00862)
Numbers after ± are expanded uncertainties.

Experiment: wn = mass fraction of the nth substance listed
Details: 298 K, 100 kPa, Liquid, Alternating current cell with electrodes

With `OCCNCCO` [diethanolamine] + O the electrical conductivity (w1 = 0.0105) was 0.0194 ± 0.00039 S/m, the electrical conductivity (w1 = 0.021) was 0.0262 ± 0.00052 S/m and the electrical conductivity (w1 = 0.0315) was 0.0318 ± 0.00064 S/m. For the same compound, the electrical conductivity (w1 = 0.0419) was 0.0346 ± 0.00069 S/m and the electrical conductivity (w1 = 0.0523) was 0.0373 ± 0.00075 S/m.
